The text below walks through data of ChEMBL document CHEMBL1151370, “Marine animal biosynthetic constituents for cancer chemotherapy” (1981).

Molecules are shown by their SMILES.

The test system of the assay is P388. The assay is described as follows: Antineoplastic activity against mouse P388 cells. It is filed as functional.

The compound `CC(C)C[C@@H]1NC(=O)[C@@H]2CCCN2C(=O)[C@H](C(C)C)NC(=O)c2csc(n2)CNC(=O)c2csc(n2)[C@H](CCC(N)=O)NC1=O` [DOLASTATIN 3] showed an ED50 of 2.7 ×10⁻⁷ ug/ml.
